From patent publication US20250289793A1, “MACROCYCLIC INHIBITORS OF ATP CITRATE LYASE” (Esperion Therapeutics, Inc., priority 2022, published 2025)

What was measured:
ACLY [1] = target: T1, ACLY (Homo sapiens (Human), UniProt P53396); experiment: Human ACLY (hACLY) RF/MS activity assay; assay type: biochemical; conditions: 1 nM hACLY; 30 min pre-incubation; 15 μM Coenzyme A, 50 μM ATP, 50 μM citrate; CoA to Acetyl-CoA by RF/MS; read-out: RFMS IC50 GMean
Experimental: Compounds of the disclosure were evaluated for their efficacy in inhibiting hACLY using rapid fire mass spectrometry (RF/MS).
The final reaction volume for each compound was 20 μl and consisted of buffer (50 mM Hepes pH 8.0, 10 mM MgCl2, 0.003% BSA, 0.01% Brij35, 50 mM NaCl, 4 mM DTT) and 1 nM hACLY, EV12992, PP6692) using Greiner, 384 well small volume, deep well plates (Cat #784201). A two-fold dilution series with a top concentration of 10 μM was used to record a concentration response curve. Both the substrate (CoA) and product (Acetyl-CoA) were quantified, and given a ratio. […] The final DMSO-concentration was 1% (v/v). Compounds were pre-incubated for 30 min with the buffered enzyme solution at RT (20° C.), and substrate solution was added (final concentrations: 15 μM Coenzyme A, 50 μM ATP and 50 μM citrate) to initiate the enzyme reaction. The enzyme reaction was incubated for additional 30 min at RT. The reaction was quenched upon addition of 40 μl of 5% Formic acid in H2O and centrifuged (4350 rpm at 20° C. for 10 min).
Product formation was quantified using a RF/MS-based method based on mass change of CoA (substrate) to Acetyl-CoA (product).

ACLY [2] = target: T1, ACLY; experiment: InCell Pulse assay (permeate HEK293 cells, bind to and stabilize ACLY); assay type: cell-based; conditions: HEK293 cells transfected with pICP-ACLY(FL)-ePL; 1 hour at 37° C., 55° C. heat pulse 10 minutes; read-out: InCell Pulse IC50 GMean
Experimental: HEK293 cells transfected for 24 hours with pICP-ACLY(FL)-ePL (3 μg DNA per T25 flask) using FuGene HD (Promega Corp.) were harvested and cryopreserved. On the day of the assay, the frozen transfected cells were thawed at 37° C., and the storage medium (DMEM with 2 mM L-Glutamine, 10% FBS and a final concentration of DMSO 10%) was exchanged with assay medium (OptiMEM; Gibco™, ThermoFischer Scientific). Compounds were 3-fold serially diluted in DMSO over 11-point concentration range. 100 nL of the corresponding dilutions were spotted into the assay plate (Greiner AG; 384 Well, PP, Small Volume, Deep Well, Natural, cat. no. 784201) followed by the addition of 20 μL of cell suspension adjusted with assay medium to 7.5E4 cells/mL. Subsequently, the plates were sealed and incubated for 1 hour at 37° C. Afterwards, the plates were fixed upside down in a rack and incubated in a 55° C. water bath for 10 minutes. Following this heat pulse step, plates were allowed to reach room temperature for 10 minutes and centrifuged for a few seconds at 1000 rpm and room temperature. 25 μL EA detection solution (working solution: 0.0167× InCell EA Reagent, 0.15× InCell Dilution Buffer, 0.167× InCell Lysis Buffer; 0.667× InCell Substrate Reagent; InCell Hunter Detection kit; Eurofins DiscoverX; cat. no. 96-0079) were added to each well. Afterwards, 42 μL were transferred from the assay plate to the detection plate (Corning Inc., 384-well Low Flange Black Flat Bottom Polystyrene NBS Microplate, cat. no. 3575), followed by an incubation for 1 hour at room temperature, a centrifugation step for 1 minute at 1000 rpm and the detection of the luminescence signal using an EnVision microplate reader (Perkin Elmer Inc.). Concentration-response curve-fitting and IC50 determination was performed using Evotec's in-house evaluation software APlus with a four-parameter non-linear regression fit model. Data was normalized to 0.5% (final concentration) DMSO as low/negative control and 1 μM (final concentration) NDI-094311 as high/positive control.

T1 sequence (P53396 whole entry): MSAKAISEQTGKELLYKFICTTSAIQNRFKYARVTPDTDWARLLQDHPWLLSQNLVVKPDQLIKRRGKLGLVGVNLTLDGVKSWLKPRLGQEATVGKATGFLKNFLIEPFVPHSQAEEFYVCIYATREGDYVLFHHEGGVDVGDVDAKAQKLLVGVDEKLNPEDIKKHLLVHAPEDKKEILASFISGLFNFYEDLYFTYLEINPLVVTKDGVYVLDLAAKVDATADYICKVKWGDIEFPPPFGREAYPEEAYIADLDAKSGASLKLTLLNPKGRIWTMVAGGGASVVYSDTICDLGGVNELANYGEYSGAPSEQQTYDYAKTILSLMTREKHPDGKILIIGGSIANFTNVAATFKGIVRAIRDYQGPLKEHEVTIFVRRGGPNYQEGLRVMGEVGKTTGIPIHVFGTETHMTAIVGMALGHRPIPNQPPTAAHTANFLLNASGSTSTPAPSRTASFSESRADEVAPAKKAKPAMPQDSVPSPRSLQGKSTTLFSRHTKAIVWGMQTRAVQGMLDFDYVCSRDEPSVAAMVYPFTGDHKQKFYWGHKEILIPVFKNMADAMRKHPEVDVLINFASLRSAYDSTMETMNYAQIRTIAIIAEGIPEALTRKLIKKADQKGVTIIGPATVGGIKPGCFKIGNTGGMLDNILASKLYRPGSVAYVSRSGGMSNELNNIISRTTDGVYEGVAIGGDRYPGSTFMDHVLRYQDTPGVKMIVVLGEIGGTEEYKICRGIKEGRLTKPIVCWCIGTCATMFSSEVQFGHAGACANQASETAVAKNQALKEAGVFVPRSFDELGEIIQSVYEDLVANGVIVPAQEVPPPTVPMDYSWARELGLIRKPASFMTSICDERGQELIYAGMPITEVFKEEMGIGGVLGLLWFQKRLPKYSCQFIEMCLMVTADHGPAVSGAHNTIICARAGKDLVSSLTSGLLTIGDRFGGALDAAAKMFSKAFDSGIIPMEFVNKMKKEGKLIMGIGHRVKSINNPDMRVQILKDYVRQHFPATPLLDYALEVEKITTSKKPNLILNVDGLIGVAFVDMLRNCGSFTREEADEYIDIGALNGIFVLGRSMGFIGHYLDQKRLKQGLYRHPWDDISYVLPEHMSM

Row | IC50 (ACLY [1]) | IC50 (ACLY [2]) | SMILES
1 | 20 to 100 nM | ≥ 50000 nM | O=C1OCCCc2c(sc3ccccc23)-c2cc(c(F)cc2F)NS(=O)(=O)c2cc1cc(Cl)c2O [Compound 22, 18-chloro-24,26-difluoro-19-hydroxy-14-oxa-3,21lambda6-dithia-22-azapentacyclo[21.3.1.1^16,20.0^2,10.0^4,9]octacosa-1(27),2(10),4,6,8,16,18,20(28),23,25-decaene-15,21,21-trione]
2 | < 20 nM | < 300 nM | O=C1OCCOc2ccccc2-c2ccc(F)c(c2)NS(=O)(=O)c2cc1cc(Cl)c2O [Compound 23, 15-chloro-21-fluoro-16-hydroxy-8,11-dioxa-18lambda6-thia-19-azatetracyclo[18.3.1.1^13,17.0^2,7]pentacosa-1(24),2,4,6,13,15,17(25),20,22-nonaene-12,18,18-trione]
3 | 20 to 100 nM | ≥ 50000 nM | O=C1OCCCn2c(cc3ccccc32)-c2cc(c(F)cc2F)NS(=O)(=O)c2cc1cc(Cl)c2O [Compound 27, 18-chloro-24,26-difluoro-19-hydroxy-14-oxa-21lambda6-thia-10,22-diazapentacyclo[21.3.1.1^16,20.0^2,10.0^4,9]octacosa-1(27),2,4,6,8,16,18,20(28),23,25-decaene-15,21,21-trione]
4 | 20 to 100 nM | 300 to 1000 nM | N#Cc1ccc2c(c1)-c1cc(c(F)cc1F)NS(=O)(=O)c1cc(cc(Cl)c1O)C(=O)OCCO2 [Compound 28, 15-chloro-21,23-difluoro-16-hydroxy-12,18,18-trioxo-8,11-dioxa-18lambda6-thia-19-azatetracyclo[18.3.1.1^13,17.0^2,7]pentacosa-1(24),2,4,6,13,15,17(25),20,22-nonaene-4-carbonitrile]
5 | 20 to 100 nM | 300 to 1000 nM | O=C1OCCCOc2cc(F)ccc2-c2cc(c(F)cc2F)NS(=O)(=O)c2cc1cc(Cl)c2O [Compound 29, 16-chloro-5,22,24-trifluoro-17-hydroxy-8,12-dioxa-19lambda6-thia-20-azatetracyclo[19.3.1^1,4,18.0^2,7]hexacosa-1(25),2,4,6,14,16,18(26),21,23-nonaene-13,19,19-trione]
6 | 20 to 100 nM | 1000 to 50000 nM | O=C1NCCc2ccccc2-c2cc(c(F)cc2F)NS(=O)(=O)c2cc1cc(Cl)c2O [Compound 30, 14-chloro-20,22-difluoro-15-hydroxy-17lambda6-thia-10,18-diazatetracyclo[17.3.1.1^12,16.0^2,7]tetracosa-1(23),2,4,6,12,14,16(24),19,21-nonaene-11,17,17-trione]
7 | < 20 nM | < 300 nM | O=C1OCCOc2ncccc2-c2cc(c(F)cc2F)NS(=O)(=O)c2cc1cc(Cl)c2O [Compound 32, 15-chloro-21,23-difluoro-16-hydroxy-8,11-dioxa-18lambda6-thia-6,19-diazatetracyclo[18.3.1.1^13,17.0^2,7]pentacosa-1(24),2,4,6,13,15,17(25),20,22-nonaene-12,18,18-trione]
8 | 20 to 100 nM | 300 to 1000 nM | O=C1c2cc(Cl)c(O)c(c2)S(=O)(=O)Nc2cc(c(F)cc2F)-c2ccccc2OCC2CN1C2 [Compound 33, 16-chloro-22,24-difluoro-17-hydroxy-19,19-dioxo-8-oxa-19λ6-thia-12,20-diazapentacyclo[19.3.1.110,12.114,18.02,7]heptacosa-1(25),2,4,6,14,16,18(26),21,23-nonaen-13-one]
9 | 20 to 100 nM | ≥ 50000 nM | O=C1OCCOc2ccccc2-c2cc(c(F)cc2F)NS(=O)(=O)c2cc1c[nH]c2=O [Compound 36, 21,23-difluoro-18,18-dioxo-8,11-dioxa-18λ6-thia-15,19-diazatetracyclo[18.3.1.113,17.02,7]pentacosa-1(23),2(7),3,5,13,17(25),20(24),21-octaene-12,16-dione]
10 | 20 to 100 nM | ≥ 50000 nM | O=C1OCCOc2ccccc2-c2cc(c(F)cc2F)NS(=O)(=O)c2cc1cc(=O)[nH]2 [Compound 38, 21,23-difluoro-18,18-dioxo-8,11-dioxa-18λ6-thia-16,19-diazatetracyclo[18.3.1.113,17.02,7]pentacosa-1(23),2(7),3,5,13,17(25),20(24),21-octaene-12,15-dione]

Further lines, the compound ahead of its results:

Row | SMILES | IC50 (ACLY [1]) | IC50 (ACLY [2])
11 | O=C1OCCc2ccccc2-c2cc(c(F)cc2F)NS(=O)(=O)c2cc1cc(Cl)c2O [Compound 21, 14-chloro-20,22-difluoro-15-hydroxy-10-oxa-17lambda6-thia-18-azatetracyclo[17.3.1.1^12,16.0^2,7]tetracosa-1(23),2,4,6,12,14,16(24),19,21-nonaene-11,17,17-trione] | < 20 nM | < 300 nM
12 | O=C1OCCOc2ccc(Br)cc2-c2cc(c(F)cc2F)NS(=O)(=O)c2cc1cc(Cl)c2O [Compound 24, 4-bromo-15-chloro-21,23-difluoro-16-hydroxy-8,11-dioxa-18lambda6-thia-19-azatetracyclo[18.3.1.1^13,17.0^2,7]pentacosa-1(24),2,4,6,13,15,17(25),20,22-nonaene-12,18,18-trione] | 20 to 100 nM | < 300 nM
13 | COc1ccc2cc1NS(=O)(=O)c1cc(cc(Cl)c1O)C(=O)OCCOc1ccccc1-2 [Compound 26, 15-chloro-16-hydroxy-21-methoxy-8,11-dioxa-18lambda6-thia-19-azatetracyclo[18.3.1.1^13,17.0^2,7]pentacosa-1(24),2,4,6,13,15,17(25),20,22-nonaene-12,18,18-trione] | < 20 nM | 300 to 1000 nM
14 | O=C1OCCOc2ccc(C3CC3)cc2-c2cc(c(F)cc2F)NS(=O)(=O)c2cc1cc(Cl)c2O [Compound 31, 15-chloro-4-cyclopropyl-21,23-difluoro-16-hydroxy-8,11-dioxa-18lambda6-thia-19-azatetracyclo[18.3.1.1^13,17.0^2,7]pentacosa-1(23),2,4,6,13(25),14,16,20(24),21-nonaene-12,18,18-trione] | 100 to 10000 nM | 1000 to 50000 nM
15 | O=C1OCc2cccc(c2)Oc2cc(c(F)cc2F)NS(=O)(=O)c2cc1cc(Cl)c2O [Compound 34, 12-chloro-4,6-difluoro-11-hydroxy-9,9-dioxo-2,16-dioxa-9λ6-thia-8-azatetracyclo[16.3.1.13,7.110,14]tetracosa-1(22),3,5,7(24),10(23),11,13,18,20-nonaen-15-one] | 100 to 10000 nM | ≥ 50000 nM
16 | Cn1cc2cc(c1=O)S(=O)(=O)Nc1cc(c(F)cc1F)-c1ccccc1OCCOC2=O [Compound 35, 21,23-difluoro-15-methyl-18,18-dioxo-8,11-dioxa-18λ6-thia-15,19-diazatetracyclo[18.3.1.113,17.02,7]pentacosa-1(23),2(7),3,5,13,17(25),20(24),21-octaene-12,16-dione] | ≥ 10000 nM | ≥ 50000 nM
17 | O=C1OCCOc2ccc(F)cc2-c2ccc(F)c(c2)NS(=O)(=O)c2cc1c[nH]c2=O [Compound 37, 4,21-difluoro-18,18-dioxo-8,11-dioxa-18λ6-thia-15,19-diazatetracyclo[18.3.1.113,17.02,7]pentacosa-1(23),2(7),3,5,13,17(25),20(24),21-octaene-12,16-dione] | 100 to 10000 nM | ≥ 50000 nM
18 | O=C1OCC2Cc3cccc(c3O2)-c2cc(c(F)cc2F)NS(=O)(=O)c2cc1cc(Cl)c2O (stereo not drawn) [Compound 39, 15-chloro-21,23-difluoro-16-hydroxy-18,18-dioxo-8,11-dioxa-18λ6-thia-19-azapentacyclo[18.3.1.16,9.113,17.02,7]hexacosa-1(23),2(7),3,5,13,15,17(25),20(24),21-nonaen-12-one] | < 20 nM | < 300 nM
